# Peptide text beside a SMILES is read from it.
# Legend:
# [1] = tested on: sirtuin 1 gene; assay: mRNA expression of the long-lived gene sirtuin 1 by real-time quantitative PCR; assay type: cell-based; settings: mouse embryo fibroblasts
# Text: Total RNA was extracted from human skin fibroblasts and mouse embryo fibroblasts using TRIzol reagent (Invitrogen, USA), analyzed by RNA gel electrophoresis and subjected to RT-PCR for amplification of human skin fibroblasts sirtuin 1 and sirtuin 3 and mouse embryo fibroblasts sirtuin 1. GeneBan was used to identify well known sequences of sirtuins and GCG program was utilized to search for sequences with high similarity. A primer set was designed for polymerase chain reaction (PCR), followed by 1.2% agarose gel electrophoresis of a small portion of the reaction product to confirm the expected product has been amplified. Once confirmed, the remaining product was subjected to low-melting point agar gel electrophoresis, the product was excised from the gel and the specific size of DNA fragment was purified by gel extraction for cloning. The purified DNA fragment was ligated with the cloning vector pGEM-T-easy vector (pGEM-T-easy cloning kit, Promega, USA) before transformed into the competent cells. Finally, after small scale culture, cloning vector was extracted for sequencing, and the sequence data was compared using the BLAST program of NCBI. Part of the human skin fibroblast sirtuin 1 and sirtuin 3 and mouse embryo fibroblasts sirtuin 1 were correctly cloned by the abovementioned cloning procedures and the selected clones were transformed into competent cells again for extraction of plasmid with high purity for future experiments.
# RNA is easily degraded in natural environment by RNase and thus all tools used must be autoclaved and dried in an oven prior to conducting experiments and wear gloves and masks during the procedures. Quickly add 800 μL TRIzol™ reagent to the culture dish of the experimental group and transfer the washed off cells to a sterile tube. Add chloroform to the tube in the volume of ⅕ of the total volume of TRIzol™ reagent and shake vigorously for 30 seconds. After incubation at room temperature for 15 minutes, centrifuge at 13200 rpm for 15 minutes at 4° C. and transfer the supernatant to a new 1.5 mL eppendorf. RNA is present in the aqueous phase of the supernatant. Transfer the supernatant to another clean 1.5 mL eppendorf and add Isopropanol in the volume of ½ of TRIzol™ reagent and high salt solution (1.2 M Sodium Chloride and 0.8 M Sodium citrate), mix well and incubate at −20° C. for 30 minutes, followed by centrifugation at 13200 rpm for 15 minutes at 4° C. to precipitate RNA; remove the supernatant carefully and add 800 μL of 100% absolute ethanol to wash and centrifuge at 13200 rpm for 10 minutes at 4° C. before washing with 100% ethanol. Carefully remove the supernatant and dry the RNA precipitate at 55° C. for 5 minutes. Dissolve the RNA precipitate in 15 μL DEPC water and incubate at 55° C. for 10 minutes and store at −80° C. freezer for future use.
# Place 5 μg of total RNA in a 200 μL eppendorf and adjust the volume to 13 μL with DEPC water, add 1 μL of oligo(dT) 18, 10 mM dNTPs and incubate on ice. Add 4 μl of 5×AMV buffer and 1 μl of AMV (40 units/μL) and mix well. […]
# The fluorescent dye SYBR green I can be embedded in the groove of double-stranded DNA and generate fluorescence when excited by a halogen light and its intensity can then be measured. When SYBR green I is not embedded in the groove of double-stranded DNA, its fluorescence background value is very low; and when it starts to integrate into the amplified target gene sequence, the fluorescence signal of SYBR green I will also be increased accordingly. […]
# [2] = tested on: mouse embryo fibroblasts; assay: cell proliferation of mouse embryo fibroblasts; assay type: cell-based; settings: 48 hours
# [3] = tested on: mouse embryo fibroblasts; assay: anti-photoaging: cell survival after UV-A irradiation (MTT method); assay type: cell-based; settings: for cell survival rate after UV irradiation: 24 hours
# Procedure: After incubation for 24 hours, cell survival rates were measured by the MTT method.
# [4] = tested on: mouse embryo fibroblasts; assay: anti-oxidation: cell survival after hydrogen peroxide treatment (MTT method); assay type: cell-based
# Procedure: Following subculture of the mouse embryo fibroblasts and incubation for 4 hours for attachment, hydrogen peroxide was used to treat the cells as the source of oxidation. The cells were treated with 100, 150, 200 and […] of hydrogen peroxide before addition of 25, 50, 75 and 100 μM of surfactin for another 24 hours. Cell survival rate was measured by the MTT method.
# [5] = tested on: collagen; assay: Sircol soluble collagen assay; assay type: cell-based, mouse; settings: 24 hours
# Procedure: Sircol™ soluble collagen assay kit was used for analysis the total concentration of collagen in the culture media and the general method is described as follows:
# Place 0.1 ml of the test samples and the standards at different concentrations in separate 1.5 mL centrifuge tubes. Add 1 mL of dye reagent and vortex for 35 minutes, followed by centrifugation at 12000 rpm for 10 minutes and remove the supernatant. Carefully remove the residue water at the side of the tube to avoid contact with the precipitate. Add 1 mL of Alkali reagent to dissolve the precipitate and transfer 0.2 mL to a 96-well pate after the color has developed and measure absorbance at 570 nm using an ELISA reader.
# [6] = skin penetration of FITC-labeled dexamethasone in mice; assay type: in vivo; settings: 0.2, 0.5, 1 and 2% surfactin, 1 hour, back of mice, fluorescence intensity
# Procedure: (§1) Before the experiment, the back of the mice was shaved. Mice aged 6-8 weeks were anesthetized by intraperitoneal injection using (Zoletil) and lay the animal flat before shaving the back with a electric razor and remove the remaining hair with hair removal cream. Place the animals in the cages with a warming light and provide water in each cage. Two groups are include in the experiment: for the control group, 100 μl of PBS (pH=7.4) was mixed with fluorescein isothiocyanate (FITC)-labeled HA or dexamethasone before added to 1 cm2 sterile cotton and affixed to the back of the mice; for the experimental group, FITC-labeled HA or dexamethasone was mixed with 0, 0.2, 0.5, 1, 2 and 5% surfactin for 1 hour.
# (§2) At the end of 1 hour treatment, sacrificed the mice with CO2 asphyxiation, clean up the drug residue on the skin with ethanol and cut the skin on the back and embedded in Optimum cutting temperature compound (O.C.T) (SAKURA®, Japen) for cryosection (CM-2000, Leica, Germany).
# [7] = skin absorption of FITC-labeled hyaluronic acid in mice; assay type: in vivo; settings: 1 hour, back of mice
# Procedure: as §1, §2
# [8] = skin absorption of FITC-labeled poly-γ-glutamic acid in mice; assay type: in vivo; settings: 1, 2, 5, 10, 15 and 20% surfactin, 1 hour, back of mice, fluorescence intensity
# [9] = percutaneous penetration of gold nanoparticles in mice; assay type: in vivo; settings: 12.5 ppm surfactin, gold nanoparticles 2 nm, mice (BALB/c)
# Text: We applied the mix of gold nanoparticles and surfactin to the skin of mice for a certain period of time and collected the skin for cryosection. Because gold nanoparticles is self-luminous, optical microscope can be used to observe the content of fluorescence of gold nanoparticles in epidermis and dermis of the skin. The results indicated skin care paste obtained by conventional methods is not helpful for gold nanoparticle absorption by the skin due to its internal gel-mass like or gel-bundle like structure and thus gold nanoparticles were only found in the epidermis.
# [10] = emulsifying power in diesel, emulsification index (E24); assay type: physicochemical
# Procedure: After incubation at room temperature for 24 hours, emulsification index (E24) was measured.
# The emulsifying power is one of the important indicator of surfactants, and present invention utilized the method published by Cooper et. al to measure the emulsification index of surfactants in diesel. Different concentrations of crude surfactin was dissolved in buffer solutions at pH 6.4, 7.4 and 8.4, and 2 ml of the dissolved mixture was added to a test tube containing 3 ml of diesel, vortex for 2 minutes and incubate at room temperature for 24 hours before measurement. The ration of height of the emulsifying phase and the total height of the solution multiplied by 100% will give the emulsification index of the test solution. The emulsifying power of oil products is represented as the emulsification index (E24), wherein the equation of E24 is shown as follows: E24(%)=(height of the emulsifying phase/total height of solution)×100%.
# [11] = foaming power, foam maximum density (MD); assay type: physicochemical; settings: buffer pH 7.4, more than 150 μg of surfactin, surfactin produced by Bacillus subtilis TH
# Procedure: Measure the height of the foam and calculate the foam maximum density (MD).
# Surfactants are […] and present invention examined the foaming property of crude surfactin. The method developed by Razafindralambo et. al was referenced and different concentrations of crude surfactin was dissolved in a buffer solution with a pH at 7.4, vortex for 2 minutes and followed by incubation for 1 hour. The height of the foam was then measured and the foaming power is expressed as foam maximum density (MD) which is obtained by dividing the […].
# [12] = turbidity of diluted shampoo and corecervate formation; assay type: physicochemical
# Procedure: (1) Adjust the relative concentration of the shampoo to 0.01-1.0
# Relative concentration=shampoo liquid (g)/(shampoo liquid (g)+water (g))
# (2) Measure the transmittance rate (%, temperature at 40° C.) of the […] solution (1) and the turbidity is represented as =100−transmittance rate (%)
# [13] = Razafindralambo et al.; cited from earlier work
compound,measurement,setting,value
"CC(C)CCCCCCCCC[C@@H]1CC(=O)N[C@@H](CCC(=O)O)C(=O)N[C@@H](CC(C)C)C(=O)N[C@H](CC(C)C)C(=O)N[C@@H](C(C)C)C(=O)N[C@@H](CC(=O)O)C(=O)N[C@H](CC(C)C)C(=O)N[C@@H](CC(C)C)C(=O)O1 [surfactin] (HELM PEPTIDE1{E.L.[dL].V.D.[dL].L}|CHEM1{[CC(C)CCCCCCCCC[C@H](CC(=O)[*:1])O[*:2]]}$PEPTIDE1,CHEM1,1:R1-1:R1|PEPTIDE1,CHEM1,7:R2-1:R2$$$V2.0)",concentration with the best effect in enhancement of sirtuin 1 expression,"[1]; 0-100 μM tested, 6-48 hours",50 µM
same,expression of the sirtuin 1 gene,"[1]; 6 hours, 50 μM and 75 μM surfactin",enhance expression of the sirtuin 1 gene
same,expression of the sirtuin 1 gene,"[1]; 12 hours, 25 μM surfactin",enhancement of expression of the sirtuin 1 gene
same,expression of the sirtuin 1 gene,"[1]; 36 hours, 50 μM and 100 μM surfactin",enhancement of expression of the sirtuin 1 gene
same,expression of the sirtuin 1 gene,"[1]; 48 hours, 50 μM surfactin",enhancement of expression of the sirtuin 1 gene
same,mouse embryo fibroblast proliferation,"[2]; 0, 25, 50, 75 and 100 μM",can enhance mouse embryo fibroblast proliferation
same,concentration with the best effect in inducing cell proliferation,[2]; followed by 50 μM,75 µM
same,cell proliferation compared with resveratrol and Palmitoyl pentapeptide-3,"[2]; resveratrol 0-30 μM, Palmitoyl pentapeptide-3 0-10 μM",better effect in inducing cell proliferation
same,cell survival rate after UV irradiation,"[3]; UV 10 J/cm^2, 25, 50, 75, 100 and 125 μM surfactin",increase cell survival rate
same,concentration with the best protection after UV irradiation,"[3]; UV 10 J/cm^2, 24 hours",75 µM
same,cell survival rate after UV irradiation,"[3]; UV 15 J/cm^2, 25, 50, 75, 100 and 125 μM surfactin",increase cell survival rate
same,concentration with the best protection after UV irradiation,"[3]; UV 15 J/cm^2, 24 hours",50 µM
same,protective effect against hydrogen peroxide,"[4]; 25, 50 and 75 μM surfactin",good protective effect
same,survival rate of mouse embryo fibroblasts treated with hydrogen peroxide,"[4]; hydrogen peroxide 100-250 μM, surfactin 24 hours, MTT",can increase the survival rate
same,collagen proliferation in mouse embryo fibroblasts,"[5]; 25, 50, 75 and 100 μM, compared with PBS control",great effects in increasing collagen proliferation
same,concentration with the best result in increasing collagen,[5],100 µM
same,skin penetration of dexamethasone,[6],can enhance skin penetration of dexamethasone
same,hyaluronic acid (HA) absorption by the skin,"[7]; 0.2-5% surfactin, fluorescence intensity",can increase hyaluronic acid (HA) absorption by the skin
same,surfactin concentration with the best effect on enhancing skin absorption of HA,[7],1%
same,skin absorption of γ-GPA,[8],can all increase skin absorption of γ-GPA
same,percutaneous absorption of gold nanoparticles,[9],significantly enhance the percutaneous absorption of gold nanoparticles
same,pH of the best emulsifying power,"[10]; pH 6.4, 7.4 and 8.4 tested, E24 after 24 hours",7.4
same,concentration of the best emulsifying power,[10]; pH=7.4,160 μg/m
same,"foam maximum density (MD), minimum",[11],1.23
same,turbidity of the shampoo,"[12]; compared with sodium laureth sulfate, 40° C., relative concentration 0.01-1.0",can further reduce the turbidity of the shampoo
same,corecervate formation,[12]; shampoo during flushing / dilution,corecervate will occur at low concentrations
same,MD value of surfactin,[13],≥ 0.10
palmitoyl pentapeptide-3 [reference compound],collagen effect compared with surfactin,[5],not as good as surfactin
same,collagen content in the cells,"[5]; Palmitoyl pentapeptide-3 3, 5, 8 and 10 μM",can also increase collagen content

# — patent US9364413B2, “Method for anti-aging treatment by surfactin in cosmetics via enhancing sirtuin” (UMO International Co., Ltd., priority 2014, dated 2016)
